Reference: PubChem BioAssay AID686966 (The Scripps Research Institute Molecular Screening Center, 2013)
Calls of active or inactive are those of the source. How the calls were made is not given here.

Target: Tyrosine-protein kinase ABL1 (Homo sapiens) + Ras and Rab interactor 1 (Homo sapiens) (UniProt P00519+Q13671)
Assay: inhibitors of Rin1-Abl protein interaction, late-stage follow-up, biochemical, TR-FRET, round 2 (AID 686966)
Settings: TR-FRET Rin1-Abl binding

Chain of Tyrosine-protein kinase ABL1 (Homo sapiens) + Ras and Rab interactor 1 (Homo sapiens) (P00519 whole entry, looked up): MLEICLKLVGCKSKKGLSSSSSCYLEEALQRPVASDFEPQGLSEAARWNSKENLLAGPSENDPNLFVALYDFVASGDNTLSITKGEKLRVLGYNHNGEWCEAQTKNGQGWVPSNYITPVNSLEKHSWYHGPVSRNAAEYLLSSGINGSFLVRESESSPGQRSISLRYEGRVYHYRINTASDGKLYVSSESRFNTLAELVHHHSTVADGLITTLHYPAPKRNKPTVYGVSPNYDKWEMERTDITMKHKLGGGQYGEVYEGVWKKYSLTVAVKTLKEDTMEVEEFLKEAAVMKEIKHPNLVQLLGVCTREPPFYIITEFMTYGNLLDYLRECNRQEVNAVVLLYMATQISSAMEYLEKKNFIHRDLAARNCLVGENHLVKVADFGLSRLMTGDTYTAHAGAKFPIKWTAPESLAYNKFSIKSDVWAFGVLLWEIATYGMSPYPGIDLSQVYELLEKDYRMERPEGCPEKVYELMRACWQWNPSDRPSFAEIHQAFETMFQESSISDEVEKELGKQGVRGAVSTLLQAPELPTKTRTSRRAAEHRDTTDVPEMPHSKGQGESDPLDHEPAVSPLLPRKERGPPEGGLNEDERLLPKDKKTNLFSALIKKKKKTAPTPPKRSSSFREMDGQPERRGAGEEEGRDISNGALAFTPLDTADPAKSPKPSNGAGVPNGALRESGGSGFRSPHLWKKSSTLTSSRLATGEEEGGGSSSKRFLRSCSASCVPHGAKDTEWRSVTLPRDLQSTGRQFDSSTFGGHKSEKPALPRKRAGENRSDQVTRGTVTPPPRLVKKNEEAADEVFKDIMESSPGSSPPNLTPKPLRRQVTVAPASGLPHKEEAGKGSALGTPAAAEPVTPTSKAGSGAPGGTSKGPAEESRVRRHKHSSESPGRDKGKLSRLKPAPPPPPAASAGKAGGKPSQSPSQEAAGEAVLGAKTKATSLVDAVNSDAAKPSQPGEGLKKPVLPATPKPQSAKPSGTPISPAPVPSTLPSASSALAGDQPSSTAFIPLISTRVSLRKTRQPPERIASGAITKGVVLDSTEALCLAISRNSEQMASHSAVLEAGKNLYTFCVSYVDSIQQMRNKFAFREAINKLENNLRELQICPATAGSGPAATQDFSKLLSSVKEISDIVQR
Chain of Tyrosine-protein kinase ABL1 (Homo sapiens) + Ras and Rab interactor 1 (Homo sapiens) (Q13671 whole entry, looked up): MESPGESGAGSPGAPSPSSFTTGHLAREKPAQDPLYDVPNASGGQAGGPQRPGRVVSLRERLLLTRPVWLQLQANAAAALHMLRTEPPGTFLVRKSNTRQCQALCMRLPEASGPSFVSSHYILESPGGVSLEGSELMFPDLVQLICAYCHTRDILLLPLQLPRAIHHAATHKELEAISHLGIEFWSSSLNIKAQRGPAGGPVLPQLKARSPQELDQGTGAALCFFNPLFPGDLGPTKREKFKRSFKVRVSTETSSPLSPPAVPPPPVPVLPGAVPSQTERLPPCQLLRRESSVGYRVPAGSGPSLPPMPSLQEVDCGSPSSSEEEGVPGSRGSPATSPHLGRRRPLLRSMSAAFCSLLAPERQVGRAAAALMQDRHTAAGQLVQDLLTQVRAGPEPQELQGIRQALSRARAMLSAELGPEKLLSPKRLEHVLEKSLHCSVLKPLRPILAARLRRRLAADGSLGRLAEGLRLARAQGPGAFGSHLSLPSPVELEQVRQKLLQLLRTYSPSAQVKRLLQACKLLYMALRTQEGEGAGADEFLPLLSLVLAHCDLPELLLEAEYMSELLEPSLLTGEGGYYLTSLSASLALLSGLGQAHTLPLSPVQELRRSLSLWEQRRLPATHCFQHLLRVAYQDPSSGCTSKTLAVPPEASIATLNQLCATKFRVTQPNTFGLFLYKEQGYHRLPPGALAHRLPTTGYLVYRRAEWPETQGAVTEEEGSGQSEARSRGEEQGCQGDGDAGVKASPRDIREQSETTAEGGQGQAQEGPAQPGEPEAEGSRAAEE

IC50	Compound
19.4 nM	O=c1cc(OCc2ccc(F)cc2)cc[nH]1
> 73500 nM (inactive)	COc1cc(OCc2ccccc2)ccn1
39.8 nM	COc1ccc(COc2cc[nH]c(=O)c2)cc1
> 73500 nM (inactive)	Nc1cc(OCc2ccccc2)ccn1
inactive	Cn1ccc(OCc2ccc(F)cc2)cc1=O
23.1 nM	O=c1cc(OCc2ccccc2)cc[nH]1
> 73500 nM (inactive)	COc1ccc(COc2ccnc(OC)c2)cc1
inactive	COc1cc(OCc2ccc(F)cc2)ccn1
> 73500 nM (inactive)	Cn1ccc(OCc2ccccc2)cc1=O
> 73500 nM (inactive)	COc1ccc(COc2ccn(C)c(=O)c2)cc1
